Assay results taken from ChEMBL document CHEMBL1151464 (2008).

Assays:
Type in all cases: functional
Acinetobacter baumannii [1] = assay: Antibacterial activity against Acinetobacter baumannii isolate 928 after 24 hrs by CLSI microdilution method; details: isolate 928, 24 h
Acinetobacter baumannii [2] = assay: Antibacterial activity against Acinetobacter baumannii isolate 930 after 24 hrs by CLSI microdilution method; details: isolate 930, 24 h
Acinetobacter baumannii [3] = assay: Antibacterial activity against Acinetobacter baumannii isolate 932 expressing OXA-24 and OXA-51 beta-lactamase after 24 hrs by CLSI microdilution method; details: isolate 932, 24 h
Acinetobacter baumannii [4] = assay: Antibacterial activity against Acinetobacter baumannii isolate 934 after 24 hrs by CLSI microdilution method; details: isolate 934, 24 h
Pseudomonas aeruginosa [5] = assay: Antibacterial activity against Pseudomonas aeruginosa isolate 319 after 24 hrs by CLSI microdilution method; details: isolate 319, 24 h
Pseudomonas aeruginosa [6] = assay: Antibacterial activity against Pseudomonas aeruginosa isolate 320 after 24 hrs by CLSI microdilution method; details: isolate 320, 24 h
Pseudomonas aeruginosa [7] = assay: Antibacterial activity against Pseudomonas aeruginosa isolate 322 after 24 hrs by CLSI microdilution method; details: isolate 322, 24 h
Pseudomonas aeruginosa [8] = assay: Antibacterial activity against Pseudomonas aeruginosa isolate 323 after 24 hrs by CLSI microdilution method; details: isolate 323, 24 h
Pseudomonas aeruginosa [9] = assay: Antibacterial activity against Pseudomonas aeruginosa isolate 324 after 24 hrs by CLSI microdilution method; details: isolate 324, 24 h
Pseudomonas aeruginosa [10] = assay: Antibacterial activity against Pseudomonas aeruginosa isolate 326 after 24 hrs by CLSI microdilution method; details: isolate 326, 24 h
Pseudomonas aeruginosa [11] = assay: Antibacterial activity against Pseudomonas aeruginosa isolate 327 after 24 hrs by CLSI microdilution method; details: isolate 327, 24 h
Pseudomonas aeruginosa [12] = assay: Antibacterial activity against Pseudomonas aeruginosa isolate 328 after 24 hrs by CLSI microdilution method; details: isolate 328, 24 h
Pseudomonas aeruginosa [13] = assay: Antibacterial activity against Pseudomonas aeruginosa isolate 335 after 24 hrs by CLSI microdilution method; details: isolate 335, 24 h
Pseudomonas aeruginosa [14] = assay: Antibacterial activity against Pseudomonas aeruginosa isolate 338 after 24 hrs by CLSI microdilution method; details: isolate 338, 24 h
Pseudomonas aeruginosa [15] = assay: Antibacterial activity against Pseudomonas aeruginosa isolate 340 after 24 hrs by CLSI microdilution method; details: isolate 340, 24 h
Pseudomonas aeruginosa [16] = assay: Antibacterial activity against Pseudomonas aeruginosa isolate 344 after 24 hrs by CLSI microdilution method; details: isolate 344, 24 h
Pseudomonas aeruginosa [17] = assay: Antibacterial activity against Pseudomonas aeruginosa isolate 345 after 24 hrs by CLSI microdilution method; details: isolate 345, 24 h
Pseudomonas aeruginosa [18] = assay: Antibacterial activity against Pseudomonas aeruginosa isolate 348 after 24 hrs by CLSI microdilution method; details: isolate 348, 24 h
Pseudomonas aeruginosa [19] = assay: Antibacterial activity against Pseudomonas aeruginosa isolate 349 after 24 hrs by CLSI microdilution method; details: isolate 349, 24 h
Pseudomonas aeruginosa [20] = assay: Antibacterial activity against Pseudomonas aeruginosa isolate 350 after 24 hrs by CLSI microdilution method; details: isolate 350, 24 h
Pseudomonas aeruginosa [21] = assay: Antibacterial activity against Pseudomonas aeruginosa isolate 352 after 24 hrs by CLSI microdilution method; details: isolate 352, 24 h
Pseudomonas aeruginosa [22] = assay: Antibacterial activity against Pseudomonas aeruginosa isolate 354 after 24 hrs by CLSI microdilution method; details: isolate 354, 24 h
Pseudomonas aeruginosa [23] = assay: Antibacterial activity against Pseudomonas aeruginosa isolate 356 after 24 hrs by CLSI microdilution method; details: isolate 356, 24 h
Pseudomonas aeruginosa [24] = assay: Antibacterial activity against Pseudomonas aeruginosa isolate 357 after 24 hrs by CLSI microdilution method; details: isolate 357, 24 h
Pseudomonas aeruginosa [25] = assay: Antibacterial activity against Pseudomonas aeruginosa isolate 358 after 24 hrs by CLSI microdilution method; details: isolate 358, 24 h
Pseudomonas aeruginosa [26] = assay: Antibacterial activity against Pseudomonas aeruginosa isolate 363 after 24 hrs by CLSI microdilution method; details: isolate 363, 24 h
Pseudomonas aeruginosa [27] = assay: Antibacterial activity against Pseudomonas aeruginosa isolate 367 after 24 hrs by CLSI microdilution method; details: isolate 367, 24 h
Pseudomonas aeruginosa [28] = assay: Antibacterial activity against Pseudomonas aeruginosa isolate 368 after 24 hrs by CLSI microdilution method; details: isolate 368, 24 h
Pseudomonas aeruginosa [29] = assay: Antibacterial activity against Pseudomonas aeruginosa isolate 369 after 24 hrs by CLSI microdilution method; details: isolate 369, 24 h
Pseudomonas aeruginosa [30] = assay: Antibacterial activity against Pseudomonas aeruginosa isolate 372 after 24 hrs by CLSI microdilution method; details: isolate 372, 24 h
Pseudomonas aeruginosa [31] = assay: Antibacterial activity against Pseudomonas aeruginosa isolate 373 after 24 hrs by CLSI microdilution method; details: isolate 373, 24 h
Pseudomonas aeruginosa [32] = assay: Antibacterial activity against Pseudomonas aeruginosa isolate 376 after 24 hrs by CLSI microdilution method; details: isolate 376, 24 h
Pseudomonas aeruginosa [33] = assay: Antibacterial activity against Pseudomonas aeruginosa isolate 379 expressing VIM2 beta-lactamase after 24 hrs by CLSI microdilution method; details: isolate 379, 24 h
Acinetobacter baumannii [34] = assay: Antibacterial activity against Acinetobacter baumannii isolate 883 after 24 hrs by CLSI microdilution method; details: isolate 883, 24 h
Acinetobacter baumannii [35] = assay: Antibacterial activity against Acinetobacter baumannii isolate 885 after 24 hrs by CLSI microdilution method; details: isolate 885, 24 h
Acinetobacter baumannii [36] = assay: Antibacterial activity against Acinetobacter baumannii isolate 886 after 24 hrs by CLSI microdilution method; details: isolate 886, 24 h
Acinetobacter baumannii [37] = assay: Antibacterial activity against Acinetobacter baumannii isolate 888 after 24 hrs by CLSI microdilution method; details: isolate 888, 24 h
Acinetobacter baumannii [38] = assay: Antibacterial activity against Acinetobacter baumannii isolate 889 after 24 hrs by CLSI microdilution method; details: isolate 889, 24 h
Acinetobacter baumannii [39] = assay: Antibacterial activity against Acinetobacter baumannii isolate 890 after 24 hrs by CLSI microdilution method; details: isolate 890, 24 h
Acinetobacter baumannii [40] = assay: Antibacterial activity against Acinetobacter baumannii isolate 894 after 24 hrs by CLSI microdilution method; details: isolate 894, 24 h
Acinetobacter baumannii [41] = assay: Antibacterial activity against Acinetobacter baumannii isolate 895 after 24 hrs by CLSI microdilution method; details: isolate 895, 24 h
Acinetobacter baumannii [42] = assay: Antibacterial activity against Acinetobacter baumannii isolate 896 after 24 hrs by CLSI microdilution method; details: isolate 896, 24 h
Acinetobacter baumannii [43] = assay: Antibacterial activity against Acinetobacter baumannii isolate 897 after 24 hrs by CLSI microdilution method; details: isolate 897, 24 h
Acinetobacter baumannii [44] = assay: Antibacterial activity against Acinetobacter baumannii isolate 898 after 24 hrs by CLSI microdilution method; details: isolate 898, 24 h
Acinetobacter baumannii [45] = assay: Antibacterial activity against Acinetobacter baumannii isolate 899 after 24 hrs by CLSI microdilution method; details: isolate 899, 24 h
Acinetobacter baumannii [46] = assay: Antibacterial activity against Acinetobacter baumannii isolate 900 after 24 hrs by CLSI microdilution method; details: isolate 900, 24 h
Acinetobacter baumannii [47] = assay: Antibacterial activity against Acinetobacter baumannii isolate 903 after 24 hrs by CLSI microdilution method; details: isolate 903, 24 h
Acinetobacter baumannii [48] = assay: Antibacterial activity against Acinetobacter baumannii isolate 908 after 24 hrs by CLSI microdilution method; details: isolate 908, 24 h
Acinetobacter baumannii [49] = assay: Antibacterial activity against Acinetobacter baumannii isolate 910 after 24 hrs by CLSI microdilution method; details: isolate 910, 24 h
Acinetobacter baumannii [50] = assay: Antibacterial activity against Acinetobacter baumannii isolate 911 after 24 hrs by CLSI microdilution method; details: isolate 911, 24 h
Acinetobacter baumannii [51] = assay: Antibacterial activity against Acinetobacter baumannii isolate 912 after 24 hrs by CLSI microdilution method; details: isolate 912, 24 h
Acinetobacter baumannii [52] = assay: Antibacterial activity against Acinetobacter baumannii isolate 913 after 24 hrs by CLSI microdilution method; details: isolate 913, 24 h
Acinetobacter baumannii [53] = assay: Antibacterial activity against Acinetobacter baumannii isolate 916 after 24 hrs by CLSI microdilution method; details: isolate 916, 24 h
Acinetobacter baumannii [54] = assay: Antibacterial activity against Acinetobacter baumannii isolate 918 after 24 hrs by CLSI microdilution method; details: isolate 918, 24 h
Acinetobacter baumannii [55] = assay: Antibacterial activity against Acinetobacter baumannii isolate 919 after 24 hrs by CLSI microdilution method; details: isolate 919, 24 h
Acinetobacter baumannii [56] = assay: Antibacterial activity against Acinetobacter baumannii isolate 922 after 24 hrs by CLSI microdilution method; details: isolate 922, 24 h
Acinetobacter baumannii [57] = assay: Antibacterial activity against Acinetobacter baumannii isolate 923 after 24 hrs by CLSI microdilution method; details: isolate 923, 24 h
Acinetobacter baumannii [58] = assay: Antibacterial activity against Acinetobacter baumannii isolate 924 after 24 hrs by CLSI microdilution method; details: isolate 924, 24 h
Acinetobacter baumannii [59] = assay: Antibacterial activity against Acinetobacter baumannii isolate 925 after 24 hrs by CLSI microdilution method; details: isolate 925, 24 h

Measured: MIC

C[C@@H](O)[C@H]1C(=O)N2C(C(=O)O)=C(S[C@@H]3CN[C@H](C(=O)N(C)C)C3)[C@H](C)[C@H]12 [MEROPENEM]
4 µg/mL: Pseudomonas aeruginosa [13] | Acinetobacter baumannii [49] | Acinetobacter baumannii [51]
0.12 µg/mL: Pseudomonas aeruginosa [22]
0.5 µg/mL: Pseudomonas aeruginosa [16] | Pseudomonas aeruginosa [24] | Acinetobacter baumannii [36] | Acinetobacter baumannii [46] | Acinetobacter baumannii [57] | Acinetobacter baumannii [58]
32 µg/mL: Acinetobacter baumannii [4] | Acinetobacter baumannii [45]
0.25 µg/mL: Acinetobacter baumannii [2] | Pseudomonas aeruginosa [9] | Pseudomonas aeruginosa [18] | Pseudomonas aeruginosa [27] | Pseudomonas aeruginosa [28] | Acinetobacter baumannii [52] | Acinetobacter baumannii [54]
1 µg/mL: Pseudomonas aeruginosa [8] | Pseudomonas aeruginosa [14] | Pseudomonas aeruginosa [15] | Pseudomonas aeruginosa [17] | Pseudomonas aeruginosa [26] | Acinetobacter baumannii [34] | Acinetobacter baumannii [37] | Acinetobacter baumannii [38] | Acinetobacter baumannii [39] | Acinetobacter baumannii [43] | Acinetobacter baumannii [47] | Acinetobacter baumannii [55] | Acinetobacter baumannii [56] | Acinetobacter baumannii [59]
8 µg/mL: Acinetobacter baumannii [35] | Acinetobacter baumannii [41] | Acinetobacter baumannii [44] | Acinetobacter baumannii [53]
256 µg/mL: Acinetobacter baumannii [3] | Pseudomonas aeruginosa [33]
16 µg/mL: Pseudomonas aeruginosa [10] | Pseudomonas aeruginosa [25] | Pseudomonas aeruginosa [30] | Pseudomonas aeruginosa [32] | Acinetobacter baumannii [50]
2 µg/mL: all other assays above
